Measurements reported in patent publication US11878973B2, “Bicyclic compounds and their uses” (NOVARTIS AG, priority 2021, dated 2024).

How the values were obtained:
[1] = target: WRN helicase (Homo sapiens (Human), UniProt Q14191); experiment: In vitro enzymatic activity assay on WRN helicase (DNA dependent ATPase assay, ADP-Glo); format: biochemical; conditions: geometric means of at least 2 determinations; read-out: WRN ATPase Activity (IC50)
Text: An ATPase assay was set up to measure the DNA dependent ATP hydrolysis activity of WRN helicase. This assay was used also to assess the inhibition properties of compounds of the invention on DNA dependent WRN ATPase activity.
The core helicase motif of the WRN protein (aa N517-P1238) was produced for this assay (protein production as described above). […] The ADP-Glo assay kit (Promega, Madison, WI) allowing the quantification of ADP produced in ATP hydrolysis reactions was used for setting up this assay.
Time course experiments were first performed in order to determine the best enzymatic assay conditions (including buffer conditions, reaction time and concentrations of protein, ATP and DNA substrates). A typical reaction consists of 10 nM WRN protein, 0.2 nM FLAP26, and 300 micromolar ATP in the following assay buffer: 30 mM Tris pH7.5, 2 mM MgCl2, 0.02% BSA, 50 mM NaCl, 0.1% pluronic F127 prepared in DNAse free water. To evaluate the inhibition properties of compounds of the invention, serial dilutions were prepared in DMSO (10 half log dilutions from a 10 mM DMSO solution). […] The reaction was started by addition of 2.5 microliters of FLAP26 at 0.4 nM and incubated for 30 minutes at room temperature. The reaction was stopped with the addition of 5 microliters of the first ADP-Glo reagent and incubated for one hour to remove the excess amount of ATP. Afterwards, 10 microliters of ATP detection reagent was added and incubated for an additional hour before reading. Luminescence output was recorded using Tecan 1000 reader, with 5 minutes delay before reading. Each concentration of compound was tested in duplicates in the assay plate.
Following normalization of activity values for the wells to % inhibition (% inhibition=[(high control-sample)/(high control-low control)]×100), IC50 fitting was carried out from the duplicate determinations present on each plate according to [4]. Data analysis can also be carried out using commercially available software designed to derive IC50 values using 4-parameter fits (e.g. GraphPad Prism, XL fit). The reported IC50 values are the geometrical means of at least 2 independent replicates.

[2] = test system: SW48 cells; experiment: Proliferation assay SW48 (CellTiterGlo, 96 hours); conditions: Homo sapiens, SW48, read-out: Proliferation Assay SW48 (GI50)
[3] = test system: DLD1-WRN-KO cells; experiment: Proliferation assay DLD1-WRN-KO (CellTiterGlo, 96 hours; off-target effects); conditions: Homo sapiens, read-out: Proliferation Assay DLD1-WRN-KO (GI50)

WRN helicase, sequence (Q14191 517-1238): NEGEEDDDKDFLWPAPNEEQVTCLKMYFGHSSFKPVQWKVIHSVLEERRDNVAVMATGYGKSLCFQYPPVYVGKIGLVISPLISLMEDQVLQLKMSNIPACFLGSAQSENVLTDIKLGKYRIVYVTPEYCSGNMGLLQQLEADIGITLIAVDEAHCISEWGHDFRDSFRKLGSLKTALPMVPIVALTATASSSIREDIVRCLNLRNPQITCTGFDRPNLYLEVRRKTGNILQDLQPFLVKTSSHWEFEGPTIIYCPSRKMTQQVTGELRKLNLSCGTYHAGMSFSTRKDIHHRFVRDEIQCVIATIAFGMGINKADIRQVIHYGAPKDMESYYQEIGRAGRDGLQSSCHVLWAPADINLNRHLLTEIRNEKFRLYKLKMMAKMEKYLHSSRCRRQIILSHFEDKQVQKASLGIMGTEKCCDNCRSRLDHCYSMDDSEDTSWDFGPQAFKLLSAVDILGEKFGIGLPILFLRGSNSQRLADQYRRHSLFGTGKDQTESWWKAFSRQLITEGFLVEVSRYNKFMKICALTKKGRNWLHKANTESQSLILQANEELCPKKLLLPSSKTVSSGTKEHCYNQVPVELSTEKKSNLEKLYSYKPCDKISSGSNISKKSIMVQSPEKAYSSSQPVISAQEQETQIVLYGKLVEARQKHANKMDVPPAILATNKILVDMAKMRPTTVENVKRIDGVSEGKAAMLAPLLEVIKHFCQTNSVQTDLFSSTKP

SMILES | IC50 [1] | GI50 [2] | GI50 [3]
CCc1c(N2CCN(C(=O)c3nccc(F)c3O)CC2)c(=O)n2nc(C3=CCOCC3)nc2n1CC(=O)Nc1ccc(C(F)(F)F)cc1C [Example 63, 2-(2-(3,6-dihydro-2H-pyran-4-yl)-5-ethyl-6-(4-(4-fluoro-3-hydroxypicolinoyl)piperazin-1-yl)-7-oxo-[1,2,4]triazolo[1,5-a]pyrimidin-4(7H)-yl)-N-(2-methyl-4-(trifluoromethyl)phenyl)acetamide] | 110 nM | 50 nM | > 10000 nM
CCc1c(N2CCN(C(=O)c3ncccc3O)CC2)c(=O)n2nc(C3=CCOCC3)nc2n1CC(=O)Nc1ccc(C(F)(F)F)cc1 [Example 72, 2-(2-(3,6-dihydro-2H-pyran-4-yl)-5-ethyl-6-(4-(3-hydroxypicolinoyl)piperazin-1-yl)-7-oxo-[1,2,4]triazolo[1,5-a]pyrimidin-4(7H)-yl)-N-(4-(trifluoromethyl)phenyl)acetamide] | 50 nM | 50 nM | > 10000 nM
CCc1c(N2CCN(C(=O)c3nccc(Cl)c3O)CC2)c(=O)n2nc(C3=CCCCO3)nc2n1CC(=O)Nc1ccc(C(F)(F)F)nc1Cl [Example 30, 2-(6-(4-(4-chloro-3-hydroxypicolinoyl)piperazin-1-yl)-2-(3,4-dihydro-2H-pyran-6-yl)-5-ethyl-7-oxo-[1,2,4]triazolo[1,5-a]pyrimidin-4(7H)-yl)-N-(2-chloro-6-(trifluoromethyl)pyridin-3-yl)acetamide] | 140 nM | 160 nM | > 10000 nM
CCc1c(N2CCN(C(=O)c3ncccc3O)CC2)c(=O)n2nc(C3=COCCO3)nc2n1CC(=O)Nc1ccc(C(F)(F)F)nc1Cl [Example 27, N-(2-chloro-6-(trifluoromethyl)pyridin-3-yl)-2-(2-(5,6-dihydro-1,4-dioxin-2-yl)-5-ethyl-6-(4-(3-hydroxypicolinoyl)piperazin-1-yl)-7-oxo-[1,2,4]triazolo[1,5-a]pyrimidin-4(7H)-yl)acetamide] | 130 nM | 270 nM | > 10000 nM

Second part, the molecule after the results:

IC50 [1] | GI50 [2] | GI50 [3] | SMILES
40 nM | 170 nM | > 10000 nM | Cc1c(N2CCN(C(=O)c3ncccc3O)[C@H](C)C2)c(=O)n2nc(C3=CCOCC3)nc2n1CC(=O)Nc1ccc(C(F)(F)F)cc1 [Example 89, (R)-2-(2-(3,6-dihydro-2H-pyran-4-yl)-6-(4-(3-hydroxypicolinoyl)-3-methylpiperazin-1-yl)-5-methyl-7-oxo-[1,2,4]triazolo[1,5-a]pyrimidin-4(7H)-yl)-N-(4-(trifluoromethyl)phenyl)acetamide]
50 nM | 80 nM | > 10000 nM | CCc1c(N2CCN(C(=O)c3ncccc3O)CC2)c(=O)n2nc(C3=CCOCC3)nc2n1CC(=O)Nc1ccc(C(F)(F)F)cc1F [Example 92, 2-(2-(3,6-dihydro-2H-pyran-4-yl)-5-ethyl-6-(4-(3-hydroxypicolinoyl)piperazin-1-yl)-7-oxo-[1,2,4]triazolo[1,5-a]pyrimidin-4(7H)-yl)-N-(2-fluoro-4-(trifluoromethyl)phenyl)acetamide]
40 nM | 260 nM | > 10000 nM | Cc1c(N2CCN(C(=O)c3ncccc3O)CC2)c(=O)n2nc(C3=CCOCC3)nc2n1CC(=O)Nc1ccc(C(F)(F)F)cc1 [Example 117, 2-(2-(3,6-dihydro-2H-pyran-4-yl)-6-(4-(3-hydroxypicolinoyl)piperazin-1-yl)-5-methyl-7-oxo-[1,2,4]triazolo[1,5-a]pyrimidin-4(7H)-yl)-N-(4-(trifluoromethyl)phenyl)acetamide]
80 nM | 690 nM | > 10000 nM | CCc1c(N2CCN(C(=O)c3nc(N4CCN(C)CC4)ncc3O)CC2)c(=O)n2nc(C3=CCOCC3)nc2n1CC(=O)Nc1ccc(C(F)(F)F)cc1C [Example 128, 2-(2-(3,6-dihydro-2H-pyran-4-yl)-5-ethyl-6-(4-(5-hydroxy-2-(4-methylpiperazin-1-yl)pyrimidine-4-carbonyl)piperazin-1-yl)-7-oxo-[1,2,4]triazolo[1,5-a]pyrimidin-4(7H)-yl)-N-(2-methyl-4-(trifluoromethyl)phenyl)acetamide]
